Consider six compounds from US12559497B2, “Imidazopiperazine inhibitors of transcription activating proteins” (Board of Regents, The University of Texas System, priority 2020, dated 2026).

Each structure is given as a SMILES string.

The target of series [1] is T1, GST-CBP (1081-1197) bromodomain (Homo sapiens, UniProt Q92793).
T1 construct: The GST tagged bromodomains of CBP (1081-1197) and BRD4 (49-170) were obtained from BPS Bioscience; purchased BPS Bioscience
Briefly: CBP AlphaScreen assay. The settings on record: binding to biotin-H4 (1-21) Ac-K5/8/12/16. As for the experimental part: (§1) Specific binding of the CBP or BRD4 bromodomain to the acetylated peptide derived from the H4 histone substrate (tetra acetylated H4 (1-21) Ac—K5/8/12/16) was measured in absence or presence of inhibitors. The GST tagged bromodomains of CBP (1081-1197) and BRD4 (49-170) were obtained from BPS Bioscience and binding to the biotinylated H4 (1-21) Ac—K5/8/12/16 (AnaSpec. 64989) was assessed via AlphaScreen technology (Perkin Elmer).
CBP AlphaScreen assay: 5 nM GST-CBP (1081-1197) and 20 nM biotin-H4 (1-21) Ac—K5/8/12/16 (AnaSpec. 64989) were incubated with varying concentrations of CBP inhibitors in 15 μL of buffer containing 50 mM HEPES 7.5, […], 1 mM TCEP, and 0.003% Tween-20. After 30 minutes incubation at room temperature, 15 μL of detection buffer (BPS Bio. 33006) containing 7 μg/mL of Glutathione AlphaLisa acceptor beads (Perkin Elmer AL109) and 14 μg/mL of Streptavidin donor beads (Perkin Elmer 676002) was then added to the previous mixture. The reaction was incubated for an additional 2 hours at room temperature, and the AlphaScreen signal was quantified using the Envision Multilabel plate reader. As negative control, GST-CBP (1081-1197) was incubated with the non-acetylated biotin-H4 (1-21) peptide (AnaSpec. 62555) and in presence of 0.25% of final DMSO concentration.
(§2) BRD4 AlphaScreen assay: The binding of 2.5 nM of BRD4 (49-170) to 10 nM biotin-H4 (1-21) Ac—K5/8/12/16 (AnaSpec. 64989) was assessed following the same procedure described for the CBP assay. The standard dose response curves were fitted by Genedata Screener software using the variable-slope model: Signal=Signalnegative control+(SignalDMSO control−Signalnegative control)/(1+(IC50/Dose)∧Hill slope).
(§3) Only Signal and Dose in the equation were treated as known values.

For series [2], the target named is T2, BRD4 (49-170) bromodomain (Homo sapiens, UniProt O60885).
T2 construct: The GST tagged bromodomains of CBP (1081-1197) and BRD4 (49-170) were obtained from BPS Bioscience; purchased BPS Bioscience
Briefly: BRD4 AlphaScreen assay. The settings on record: binding to biotin-H4 (1-21) Ac-K5/8/12/16. As for the experimental part: as §1, §2, §3

Series [3] relates to DOHH2 cells. Briefly: DOHH2 Proliferation Assay. The class given is cell-based. Particulars: Homo sapiens, DOHH-2, 168 h; CellTiter-Glo viability on day 7. The protocol: DOHH2 Proliferation Assay: On day 1, 1000 DOHH2 cells were seeded to a 384-well TC plate (PerkinElmer #6007680) in 40 μL RPMI 1640 media, followed by the addition of CBP inhibitors except for column 13 where 3.3 μM staurosporine was added as negative control. DMSO was 0.1% in all the wells. The cells were lysed in and counted viability by 40 μL CellTiter-Glo (Promega #G9243) on day 7. The luminescent signal was quantified by Envision Multilabel plate reader and the standard dose response curves were fitted by Genedata Screener software using the variable-slope model: Signal=Signalnegative control+(SignalDMSO control−Signalnegative control)/(1+(IC50/Dose)∧Hill slope).
as §3
Background: Cellular ATP, detected with luciferase, serves as a proxy for viable cell number.

Series [4] is described as follows: Metabolic stability in mouse liver microsomes. The class given is in vitro ADME, CD-1 mouse. The settings on record: CD-1, liver microsomes, pH 7.4, 0.5 mg/mL microsomes, NADPH, 45 minutes, 37° C., read-out: Half-life in liver microsomes (t1/2). As for the experimental part:
(§4) Microsomal stability. Microsomal stability assays were conducted on a Beckmann Biomek FXp laboratory automation system. The liver microsomal incubation mixture consisted of liver microsomes (0.5 mg microsomal protein/mL), the Compound (1 μM), MgCl2 (3 mM), and EDTA (1 mM) in potassium phosphate buffer (100 mM, pH 7.4). Midazolam and Ketanserin were used as the assay control substrates. The reaction was initiated with the addition of an NADPH regeneration solution (1.3 mM NADPH) and maintained at 37° C. with shaking. At five time points ranging from 0 to 45 min, aliquots (50 μL) were removed and quenched with acetonitrile (100 μL) containing an internal standard (imipramine). After vortex and centrifugation, samples were analyzed by LC-MS/MS. Calculation of the in vitro half-lives and clearance followed literature guidelines.

The nature of series [5]: Metabolic stability in rat liver microsomes. The class given is in vitro ADME. The settings on record: Sprague Dawley, pH 7.4, 0.5 mg/mL microsomes, NADPH, 45 minutes, 37° C., read-out: Half-life in liver microsomes (t1/2). The protocol:
as §4
In general terms: Microsomes from liver hold many membrane-bound enzymes, among them those of drug oxidation.

A short description of series [6]: Metabolic stability in human liver microsomes. Type of series: in vitro ADME. Particulars: pH 7.4, 0.5 mg/mL microsomes, NADPH, 45 minutes, 37° C., read-out: Half-life in liver microsomes (t1/2). The protocol:
as §4

Series [7] in a line: In vivo pharmacokinetics after a single dose, mouse. Also on record: species or system Female CD-1 Mice. Particulars: for clearance / half-life / Vd: plasma, Female CD-1 mice, single dose 0.2 or 0.3 mg/kg IV; for Vd: read-out: Vss. As for the experimental part: IV (intravenous) doses were formulated in 20% DMSO+60% PEG400+20% water. PO (per os) doses were formulated in 0.5% methylcellulose in water.
Mouse: Female mice (CD1 strain, purchased from Shanghai JH Laboratory Animal Co. LTD) weighing 20-30 g were used for studies. Food and water were available to all animals ad libitum. The test article was dosed via tail vein (IV doses) or oral gavage (PO doses), respectively. Blood samples were collected from all animals at predose and at 0.083, 0.25, 0.5, 1, 2, 4, 8, and 24 h postdose into tubes containing the anticoagulant K2EDTA (3 animals per time point with 3 time points collected per animal). Plasma was separated from the blood by centrifugation at 4° C. and stored at −70° C. until analysis. Test article concentrations in plasma were quantified using a liquid chromatography with tandem mass spectrometry (LC-MS/MS) method.

T1 sequence (Q92793 1081-1197): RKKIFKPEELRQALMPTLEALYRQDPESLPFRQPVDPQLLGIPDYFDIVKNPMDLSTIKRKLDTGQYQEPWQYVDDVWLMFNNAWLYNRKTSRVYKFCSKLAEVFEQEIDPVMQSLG

Take `CNC(=O)c1ccc(-c2cc3cccc(-c4nc(C5CC5)n5c4CN(C(C)=O)CC5)c3cn2)cn1` [Compound 2, 5-(8-(7-Acetyl-3-cyclopropyl-5,6,7,8-tetrahydroimidazo[1,5-α]pyrazin-1-yl)isoquinolin-3-yl)-N-methylpicolinamide]: the IC50 in series [1] turned out to be 15 nM; in series [2] it was 25000 nM; in series [3] it was 376 nM.
Consider `CNC(=O)c1ccc(-c2cc3cccc(-c4nc(C5CCOCC5)n5c4CN(C(C)=O)CC5)c3cn2)cn1` [Compound 3, 5-(8-(7-Acetyl-3-(tetrahydro-2H-pyran-4-yl)-5,6,7,8-tetrahydroimidazo[1,5-α]pyrazin-1-yl)isoquinolin-3-yl)-N-methylpicolinamide], for which the IC50 stood at 16 nM in series [1], 15000 nM in series [2] and 232 nM in series [3]. Besides, the half-life at 1 μM in series [4] was 8.03 h; in series [5], 5.03 h; in series [6], 4.82 h. Further, the “mouse in vivo clearances compared to the structural analogs previously disclosed” value in series [7] (in words) was “dramatic decrease”. Also, in series [7] (in words), the “mouse in vivo half-lives compared to the structural analogs previously disclosed” value is “increase”. The clearance in series [7] is 11.9 mL/min/kg. This compound also showed a half-life in series [7] of 2.55 h. The Vd in series [7] turned out to be 1.84 L/kg.
Take `CNC(=O)c1ccc(-c2cc3cccc(-c4nc(C56CCC(CC5)OC6)n5c4CN(C(C)=O)CC5)c3cn2)cn1` [Compound 4, 5-(8-(7-acetyl-3-(2-oxabicyclo[2.2.2]octan-4-yl)-5,6,7,8-tetrahydroimidazo[1,5-α]pyrazin-1-yl)isoquinolin-3-yl)-N-methylpicolinamide]: the results for the IC50 in series [1], in series [2] and in series [3] were 22 nM, 17000 nM and 676 nM, respectively.
For `CNC(=O)c1ccc(-c2cc3ccc(F)c(-c4nc(C5CCOCC5)n5c4CN(C(C)=O)CC5)c3cn2)cn1` [Compound 5, 5-(8-(7-Acetyl-3-(tetrahydro-2H-pyran-4-yl)-5,6,7,8-tetrahydroimidazo[1,5-α]pyrazin-1-yl)-7-fluoroisoquinolin-3-yl)-N-methylpicolinamide], in that order: 34 nM, 20400 nM and 216 nM.
With `CC(=O)N1CCn2c(C3CCOCC3)nc(-c3c(F)ccc4cc(-c5cnc(C)s5)ncc34)c2C1` [Compound 6, 1-(1-(7-fluoro-3-(2-methylthiazol-5-yl)isoquinolin-8-yl)-3-(tetrahydro-2H-pyran-4-yl)-5,6-dihydroimidazo[1,5-α]pyrazin-7 (8H)-yl)ethan-1-one], the results for the IC50 in series [1], in series [2] and in series [3] were 14 nM, 22200 nM and 541 nM, respectively.
For `CNC(=O)c1ccc(-c2cc3cccc(-c4nc(C5CCOCC5)n5c4CN(C(=O)NC)CC5)c3cn2)cn1` [Compound 8, reference compound], the half-life at 1 μM in series [4] was determined as 10.2 h; in series [5], 9 h; in series [6], 7.7 h. The same compound gave a clearance in series [7] of 54.8 mL/min/kg. This compound had a half-life in series [7] of 0.588 h. In series [7], the Vd was found to be 2 L/kg.

A word on the IC50: it is the point on the concentration scale where inhibition reaches its midpoint. Low readings indicate greater potency, high ones weaker potency. What is called clearance is the rate of elimination divided by the concentration. Higher therefore signals a high capacity for elimination.
